Nine compounds from US8309582B2, “Small molecule Bcl-Xl/Bcl-2 binding inhibitors” (The Ohio State University Research Foundation, priority 2004, dated 2012) can be followed below.

A short description of test [1]: WB (IC50 for WB, Tables 1-9). It counts as cell-based. Particulars: marker, cell line and unit inferred. The method, then: Immunoblotting. Cells in T-75 flasks were collected by scraping, and suspended in 60 μl of phosphate-buffered saline (PBS). Two μl of the suspension was taken for protein analysis using the Bradford assay kit (Bio-Rad, Hercules, Calif.). To the remaining solution was added the same volume of 2×SDS-PAGE sample loading buffer (100 mM Tris-HCl, pH 6.8, 4% SDS, 5% β-mercaptoethanol 20% glycerol, and 0.1% bromophenol blue). The mixture was sonicated briefly, and boiled for 5 min. Equal amounts of proteins were loaded onto 10% SDS-PAGE gels.
After electrophoresis, protein bands were transferred to nitrocellulose membranes in a semidry transfer cell. The transblotted membrane was washed twice with Tris-buffered saline (TBS) containing 0.1% Tween 20 (TBST). After blocking with TBST containing 5% nonfat milk for 40 min, the membrane was incubated with the appropriate primary antibody in TBST-1% nonfat milk at 4° C. overnight. All primary antibodies were diluted 1:1000 in 1% nonfat milk-containing TBST. After treatment with the primary antibody, the membrane was washed three times with TBST for a total of 15 min, followed by incubation with goat anti-rabbit or anti-mouse IgG-horseradish peroxidase conjugates (diluted 1:5000) for 1 h at room temperature and three washes with TBST for a total of 1 h. The immunoblots were visualized by enhanced chemiluminescence.

The next test has as its target T1, Bcl-xL (Homo sapiens, UniProt Q07817).
T1 construct: fused on or other part: His tag
The experiment in a line: Competitive fluorescence polarization assay, displacement of Flu-BakBH3 peptide from Bcl-xL. Type of test: binding. As to conditions: inhibition of Bak BH3 peptide binding to Bcl-xL, FP; read-out: IC50 Bcl-xl/Bak. The method, then:
(§1) Competitive Fluorescence Polarization Assay. The binding affinity of the test agent to Bcl-2 and Bcl-xL was analyzed by a competitive fluorescence polarization assay, in which the ability of the agent to displace the binding of a Bak BH3-domain peptide to either Bcl-2 or Bcl-xL was determined. Flu-BakBH3, a Bak-BH3 peptide labeled at the N-terminus with fluorescein, was purchased from Genemed Synthesis (San Francisco, Calif.). C-Terminal-truncated, His-tagged Bcl-xL was purchased from EMD Biosciences (San Diego, Calif.), and soluble GST-fused Bcl-2 was obtained from Santa Cruz (Santa Cruz, Calif.). The KD determination was carried out in a dual-pathlength quartz cell with readings taken at […] at room temperature using a luminescence spectrometer according to an established procedure (17). Determination of IC50 values. Data from cell viability and FP assays were analyzed by using the CalcuSyn software (Biosoft, Ferguson, Mo.) to determine IC50 values, in which the calculation was based on the medium effect equation (18), i.e., Log(fa/fu)=m log(D)−m log(Dm) (equation 1), where fa and fu denote fraction affected and unaffected, respectively; m represents the Hill-type coefficient signifying the sigmoidicity of the dose-effect curve; D and Dm are the dose used and IC50, respectively.

The target of a further test is Bcl-2 (Homo sapiens, UniProt P10415). In words: Competitive fluorescence polarization assay, displacement of Flu-BakBH3 peptide from Bcl-2. Type of test: binding. Particulars: inhibition of Bak BH3 peptide binding to Bcl-2, FP; read-out: IC50 Bcl-2/Bak. The method, then: as §1
Test [2] is described as follows: MTT assay (IC50 for MTT, Tables 1-9). Type of test: cell-based. Particulars: cell line and unit inferred. As to the method:
Cell viability analysis. The effect of individual test agents on cell viability was assessed by using the MTT {[3-(4,5-dimethylthiazol-2-yl)-2,5-diphenyl-2H-tetrazolium bromide]} assay in six to twelve replicates. Cells were seeded and incubated in 96-well, flat-bottomed plates in serum-free media for 24 h, and were exposed to various concentrations of test agents dissolved in DMSO (final concentration, 0.1%) in serum-free RPMI 1640 medium for different time intervals. Controls received DMSO vehicle at a concentration equal to that in drug-treated cells. The medium was removed, replaced by 200 μl of 0.5 mg/ml of MTT in 10% FBS-containing RPMI-1640 medium, and cells were incubated in the CO2 incubator at 37° C. for 2 h. Supernatants were removed from the wells, and the reduced MTT dye was solubilized in 200 μl/well DMSO. Absorbance at 570 nm was determined on a plate reader.
(§2) Determination of IC50 values. Data from cell viability and FP assays were analyzed by using the CalcuSyn software (Biosoft, Ferguson, Mo.) to determine IC50 values, in which the calculation was based on the medium effect equation (18), i.e., Log(fa/fu)=m log(D)−m log(Dm) (equation 1), where fa and fu denote fraction affected and unaffected, respectively; m represents the Hill-type coefficient signifying the sigmoidicity of the dose-effect curve; D and Dm are the dose used and IC50, respectively.

Another test has as its system PC-3 cells. The experiment in a line: Cell viability analysis (MTT) in PC-3 cells. It counts as cell-based. As to conditions: Homo sapiens, PC-3, PC-3 cells, read-out: IC50 (μM) PC3. As to the method: Cell viability analysis. The effect of individual test agents on cell viability was assessed by using the MTT {[3-(4,5-dimethylthiazol-2-yl)-2,5-diphenyl-2H-tetrazolium bromide]} assay in six to twelve replicates. […] Controls received DMSO vehicle at a concentration equal to that in drug-treated cells. […] Supernatants were removed from the wells, and the reduced MTT dye was solubilized in 200 μl/well DMSO. Absorbance at 570 nm was determined on a plate reader.
as §2

Bcl-2, sequence (P10415 whole entry): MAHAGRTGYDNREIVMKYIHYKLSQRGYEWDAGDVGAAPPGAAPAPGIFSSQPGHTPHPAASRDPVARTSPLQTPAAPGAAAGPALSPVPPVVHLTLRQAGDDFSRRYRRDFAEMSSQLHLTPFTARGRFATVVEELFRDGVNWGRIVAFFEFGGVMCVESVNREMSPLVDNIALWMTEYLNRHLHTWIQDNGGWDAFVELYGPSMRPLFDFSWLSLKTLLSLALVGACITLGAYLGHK
T1 sequence (Q07817 1-209 limits assumed): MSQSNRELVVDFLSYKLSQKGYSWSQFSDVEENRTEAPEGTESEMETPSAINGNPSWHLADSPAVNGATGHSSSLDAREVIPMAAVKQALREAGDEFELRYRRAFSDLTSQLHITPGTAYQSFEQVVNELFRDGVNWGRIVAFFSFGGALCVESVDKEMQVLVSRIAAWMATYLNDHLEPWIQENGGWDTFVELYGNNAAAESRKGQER

Turning to `Cc1c(C)c2c(c(C)c1OC(=O)CCC(=O)O)CCC(C)(COc1ccc(/C=C3\SC(=O)NC3=O)cc1)O2` (stereo not drawn) [TG-13], the IC50 is > 7.5 µM in test [1]; 28 ± 1.4 µM at Bcl-xL; 30 ± 1.5 µM on Bcl-2; > 50 µM in test [2]; 22 ± 0.6 µM in the test with PC-3 cells.
In the case of `Cc1c(C)c2c(c(C)c1OC/C=C/c1ccccc1)CCC(C)(COc1ccc(/C=C3\SC(=O)NC3=O)cc1)O2` (stereo not drawn) [TG-10], the IC50 in test [1] was > 7.5 µM; at Bcl-xL, 13 ± 0.9 µM; at Bcl-2, 19 ± 0.8 µM; in test [2], 19 µM; with PC-3 cells, 19 ± 0.5 µM.
In the same order, the values of `CCc1ccc(-c2cc(/C=C3\SC(=O)NC3=O)ccc2OCC2(C)CCc3c(C)c(OCC=C(C)C)c(C)c(C)c3O2)cc1` (stereo not drawn) [TG-33] are > 7.5 µM, 18 ± 0.8 µM, 21 ± 1.4 µM, > 50 µM and 17 ± 0.9 µM.
On to `C=CCOc1c(C)c(C)c2c(c1C)CCC(C)(COc1ccc(/C=C3\SC(=O)N(CC(=O)OC)C3=O)cc1)O2` (stereo not drawn) [TG-9], for which the IC50 is > 7.5 µM in test [1]; > 50 µM on Bcl-xL; > 50 µM on Bcl-2; > 50 µM in test [2]; > 50 µM in the test with PC-3 cells.
Take `C=CCOc1c(C)c(C)c2c(c1C)CCC(C)(COc1ccc(/C=C3\SC(=O)NC3=O)cc1)O2` (stereo not drawn) [TG-6]: the IC50 amounted to 3 µM in test [1]; 6 ± 0.5 µM on Bcl-xL; 5.5 ± 0.4 µM on Bcl-2; 9 µM in test [2]; 11 ± 0.8 µM in the test with PC-3 cells.
For the compound `CC(C)=CCOc1c(C)c(C)c2c(c1C)CCC(C)(COc1ccc(C=C(C#N)C#N)cc1Br)O2` (stereo not drawn) [TG-36], the figures for the IC50 (in test [1]; in test [2]; with PC-3 cells) were > 7.5 µM, > 50 µM and > 50 µM, respectively.
With `CCOC(=O)C(C)(C)C(O)c1ccc(OCC2(C)CCc3c(C)c(OCC=C(C)C)c(C)c(C)c3O2)c(Br)c1` (stereo not drawn) [TG-38], the IC50 was 4.5 µM in test [1], > 50 µM in test [2] and 12.5 ± 0.6 µM in the test on PC-3 cells.
As for `CCOC(=O)C(=Cc1ccc(OCC2(C)CCc3c(C)c(OCC=C(C)C)c(C)c(C)c3O2)c(Br)c1)C(=O)OCC` (stereo not drawn) [TG-41], the IC50 was > 7.5 µM in test [1], > 50 µM in test [2] and > 50 µM in the test on PC-3 cells.
Turning to `CC(C)=CCOc1c(C)c(C)c2c(c1C)CCC(C)(COc1ccc(/C=C3\SC(=O)NC3=O)cc1-c1ccc(C(F)(F)F)cc1)O2` (stereo not drawn) [TG-31], the IC50 in test [1] is > 7.5 µM; on Bcl-xL, 4.9 ± 1.2 µM; at Bcl-2 it was 4.7 ± 2 µM; in test [2], > 50 µM; in the test on PC-3 cells, 30 ± 1.1 µM.
